Here are results for three compounds from patent publication US20260125375A1 (Pfizer Inc., priority 2022, published 2026).

The structures appear in SMILES notation. Read-outs that look alike come from different tables or passages of the source.

A word on the Kd: it is the constant that tells how readily two partners part at equilibrium. The term EC50 denotes the concentration needed to bring the measured effect to its halfway point.

One test has as its target T1, C-CBL (46-435) (Homo sapiens, UniProt P22681).
T1 construct: N-terminal biotinylated WT CBL-B (36-427) and C-CBL (46-435) were captured on a streptavidin (SA) coated sensor chip
T1 sequence (P22681 46-435): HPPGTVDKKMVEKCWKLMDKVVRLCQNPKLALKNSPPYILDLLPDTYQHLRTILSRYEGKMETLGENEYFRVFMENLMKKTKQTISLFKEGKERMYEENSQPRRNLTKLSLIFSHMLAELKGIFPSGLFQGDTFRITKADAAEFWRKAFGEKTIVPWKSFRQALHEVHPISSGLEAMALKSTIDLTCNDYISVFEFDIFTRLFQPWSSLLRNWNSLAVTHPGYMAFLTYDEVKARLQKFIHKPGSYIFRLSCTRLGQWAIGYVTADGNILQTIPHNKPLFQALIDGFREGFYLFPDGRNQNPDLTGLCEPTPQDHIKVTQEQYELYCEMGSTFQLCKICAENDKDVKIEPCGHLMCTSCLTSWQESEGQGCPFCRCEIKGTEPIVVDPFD
As to the kind of experiment: Surface Plasmon Resonance (SPR) assay, binding affinity and kinetics, C-CBL. To be noted: SPR at 10° C., biotinylated C-CBL (46-435) on streptavidin chip; geometric mean; read-out: C-CBL SPR Kd (nM) GMean. Summed up: (§1)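 Biotinylated WT CBL-B (36-427) or C-CBL (46-435) captured on streptavidin chip (~5000–6000 RU); binding at 10° C in HEPES buffer pH 7.2 with 2% DMSO. Multi-cycle: 2-fold, 10-point series from 10 or 100 μM, 90 s association. Single-cycle: 3-fold, 6-point, 0.001–1 μM, 120 s association, >5400 s dissociation.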

A further test addresses T2, WT CBL-B (36-427) (Homo sapiens, UniProt Q13191).
T2 construct: N-terminal biotinylated WT CBL-B (36-427) and C-CBL (46-435) were captured on a streptavidin (SA) coated sensor chip
The test can be described thus: Surface Plasmon Resonance (SPR) assay, binding affinity and kinetics, CBL-B. To be noted: SPR at 10° C., biotinylated WT CBL-B (36-427) on streptavidin chip; geometric mean; read-out: CBL-B SPR Kd (nM) GMean. The method, boiled down:
as §1

In another test the target is T3, C-CBL (Homo sapiens, UniProt P22681).
T3 construct: endogenous in cells; host or cells: Jurkat HiBit-IL2 reporter cells, CBL-B knocked out by CRISPR
The test can be described thus: Jurkat HiBit-IL2 assay (CBL-B KO), reporter cell line expressing C-CBL only. It counts as cell-based. To be noted: geometric mean, read-out: CBL-B KO EC50 (nM) GMean. Summed up: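 CRISPR knockout Jurkat HiBit-IL2 reporter cells (20,000/well) were preincubated 1 h with compounds (0.1% DMSO), then stimulated 4 h at 37 °C with anti-CD3 (1 μg/ml) and anti-CD28 (2 μg/ml) final. IL-2 was read by HiBiT lytic luminescence, normalized as fold over antibody-only baseline; EC50 reported as geometric mean.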
In general terms: The HiBiT peptide binds its large partner to form an active luciferase.

Setting [1] is: CBL-B KO (C-CBL only), anti-CD3/anti-CD28 stimulation 4 hours, Table 16a.

T2 sequence (Q13191 36-427): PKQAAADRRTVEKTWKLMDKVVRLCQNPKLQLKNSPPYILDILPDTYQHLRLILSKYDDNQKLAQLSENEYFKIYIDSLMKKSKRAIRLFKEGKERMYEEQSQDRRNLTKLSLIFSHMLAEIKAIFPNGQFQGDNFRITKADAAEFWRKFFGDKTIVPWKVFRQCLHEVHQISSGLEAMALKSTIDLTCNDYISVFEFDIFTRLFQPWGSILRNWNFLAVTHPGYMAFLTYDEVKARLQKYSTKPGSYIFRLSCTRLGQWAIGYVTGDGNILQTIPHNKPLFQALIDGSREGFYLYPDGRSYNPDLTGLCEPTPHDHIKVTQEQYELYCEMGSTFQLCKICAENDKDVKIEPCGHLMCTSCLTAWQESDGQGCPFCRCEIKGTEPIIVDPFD

Consider `C[C@@H](N[C@H]1CCC(F)(F)C1)c1nc(C(F)(F)F)cc2c(-c3cccc([C@H](c4nncn4C)C4CCC4)c3)n[nH]c12` [Example C9], for which the Kd on C-CBL (46-435) was 22.1 nM; at WT CBL-B (36-427) it was 3.1 nM. Also, the EC50 came to 606 nM at C-CBL (setting [1]) and 176 nM on C-CBL (CBL-B KO (expressing C-CBL only), Table 16b (further repetition)).

As to `Cn1cnnc1[C@@H](c1cccc(-c2n[nH]c3c(CNC4CCCC4)nc(C(F)(F)F)cc23)c1)C1CCC1` [Example D4], the Kd is 106 nM at C-CBL (46-435) and 2.8 nM on WT CBL-B (36-427). In addition, the EC50 on C-CBL (setting [1]) came to 479 nM.

With `C[C@H](c1nc(C(F)(F)F)cc2c(-c3cccc(C4(Cc5nncn5C)COC4)c3)n[nH]c12)N1CCO[C@@H](C)C1` (single isomer, unassigned) [Example D12], the Kd at C-CBL (46-435) was 46 nM; on WT CBL-B (36-427), 6.6 nM. For the same compound, the EC50 at C-CBL (setting [1]) is 973 nM.
